From ChEMBL document CHEMBL1201862, “PubChem BioAssay data set” (2004)
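In this assay, cells in 96-well plates receive the compound at five concentrations for 48 hours. Endpoints are linearly interpolated between the surrounding concentrations. Here, GI50 denotes the concentration required for 50% inhibition of growth.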 Activity calls are given as the source filed them. Cut-off read from the data, not from the text of the source: active = GI50 up to about 1.1 µM and inactive = higher.

Tests used:
Assay in all cases: NCI anticancer screen, dose series, 48 h
ACHN = tested on: ACHN
CAKI-1 = tested on: CAKI-1
HT-29 = tested on: HT-29
Hs-578T = tested on: Hs-578T
IGROV-1 = tested on: IGROV-1
K562 = tested on: K562
MCF7 = tested on: MCF7
MOLT-4 = tested on: MOLT-4
NCI-H460 = tested on: NCI-H460
OVCAR-3 = tested on: OVCAR-3
OVCAR-5 = tested on: OVCAR-5
RPMI-8226 = tested on: RPMI-8226
SF-268 = tested on: SF-268
SK-MEL-2 = tested on: SK-MEL-2
SK-MEL-5 = tested on: SK-MEL-5
SK-OV-3 = tested on: SK-OV-3
SNB-75 = tested on: SNB-75
SW-620 = tested on: SW-620
U-251 = tested on: U-251
UACC-62 = tested on: UACC-62

Measured: GI50

CC(C)=CCc1ccc2[nH]c3c(c2c1)C(=O)C(=O)C(C)=C3C(O)C(C)O (stereo not given)
inactive: ACHN 4.27 µM | CAKI-1 4.38 µM | HT-29 9.33 µM | Hs-578T 15.1 µM | IGROV-1 2.36 µM | K562 2.07 µM | MCF7 1.63 µM | MOLT-4 1.7 µM | NCI-H460 14.1 µM | OVCAR-3 2.96 µM | OVCAR-5 18.4 µM | RPMI-8226 1.82 µM | SF-268 12.9 µM | SK-MEL-2 8.2 µM | SK-MEL-5 2.45 µM | SK-OV-3 16.2 µM | SNB-75 17.7 µM | SW-620 2.09 µM | U-251 6.03 µM | UACC-62 5.52 µM

CC1=Nc2nc3ccccc3n2C(C)(C)C1
inactive: ACHN > 100 µM | CAKI-1 > 100 µM | HT-29 > 100 µM | Hs-578T > 100 µM | IGROV-1 > 100 µM | K562 > 100 µM | MCF7 > 100 µM | MOLT-4 > 100 µM | NCI-H460 > 100 µM | OVCAR-3 > 100 µM | OVCAR-5 > 100 µM | RPMI-8226 > 100 µM | SF-268 > 100 µM | SK-MEL-2 > 100 µM | SK-MEL-5 > 100 µM | SK-OV-3 > 100 µM | SNB-75 > 100 µM | SW-620 > 100 µM | U-251 > 100 µM | UACC-62 > 100 µM
